Where two headings read alike, the source gives them in different places.
Experiments:
hSCN3A = biological target: T1, hSCN3A (Homo sapiens, UniProt Q9NY46); assay: Whole-cell patch-clamp electrophysiology (conventional or PatchXpress), HEK cells expressing hSCN3A, estimated IC-50; format: cell-based; settings: read-out: SCN3A EIC-50
T1 construct: expressed in transfected cells
Procedure, shortened: (§1)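 Stably transfected HEK cells recorded by whole-cell voltage clamp (manual or PatchXpress) at 22–24 °C in pH 7.4 HEPES-buffered extracellular solution. Cells held at the empirically determined inactivation V1/2 after an 8 s prepulse, then stepped to 0 mV for 20 ms; % inhibition from current amplitude before vs after compound.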

hSCN9A = biological target: T2, hSCN9A (Homo sapiens, UniProt Q15858); assay: Whole-cell patch-clamp electrophysiology (conventional or PatchXpress), HEK cells expressing hSCN9A, estimated IC-50; format: cell-based; settings: read-out: SCN9A EIC-50
T2 construct: expressed in transfected cells
Procedure, shortened: as §1

[1] = Table V, estimated IC-50 from single point electrophysiology, cells clamped at V1/2
[2] = estimated IC-50, HEK cells expressing hSCN3A, class symbols or bounds
[3] = estimated IC-50, HEK cells expressing hSCN9A, class symbols or bounds
[4] = commercial compounds (second Table VI), estimated IC-50 from single point electrophysiology

T2 sequence (Q15858 whole entry): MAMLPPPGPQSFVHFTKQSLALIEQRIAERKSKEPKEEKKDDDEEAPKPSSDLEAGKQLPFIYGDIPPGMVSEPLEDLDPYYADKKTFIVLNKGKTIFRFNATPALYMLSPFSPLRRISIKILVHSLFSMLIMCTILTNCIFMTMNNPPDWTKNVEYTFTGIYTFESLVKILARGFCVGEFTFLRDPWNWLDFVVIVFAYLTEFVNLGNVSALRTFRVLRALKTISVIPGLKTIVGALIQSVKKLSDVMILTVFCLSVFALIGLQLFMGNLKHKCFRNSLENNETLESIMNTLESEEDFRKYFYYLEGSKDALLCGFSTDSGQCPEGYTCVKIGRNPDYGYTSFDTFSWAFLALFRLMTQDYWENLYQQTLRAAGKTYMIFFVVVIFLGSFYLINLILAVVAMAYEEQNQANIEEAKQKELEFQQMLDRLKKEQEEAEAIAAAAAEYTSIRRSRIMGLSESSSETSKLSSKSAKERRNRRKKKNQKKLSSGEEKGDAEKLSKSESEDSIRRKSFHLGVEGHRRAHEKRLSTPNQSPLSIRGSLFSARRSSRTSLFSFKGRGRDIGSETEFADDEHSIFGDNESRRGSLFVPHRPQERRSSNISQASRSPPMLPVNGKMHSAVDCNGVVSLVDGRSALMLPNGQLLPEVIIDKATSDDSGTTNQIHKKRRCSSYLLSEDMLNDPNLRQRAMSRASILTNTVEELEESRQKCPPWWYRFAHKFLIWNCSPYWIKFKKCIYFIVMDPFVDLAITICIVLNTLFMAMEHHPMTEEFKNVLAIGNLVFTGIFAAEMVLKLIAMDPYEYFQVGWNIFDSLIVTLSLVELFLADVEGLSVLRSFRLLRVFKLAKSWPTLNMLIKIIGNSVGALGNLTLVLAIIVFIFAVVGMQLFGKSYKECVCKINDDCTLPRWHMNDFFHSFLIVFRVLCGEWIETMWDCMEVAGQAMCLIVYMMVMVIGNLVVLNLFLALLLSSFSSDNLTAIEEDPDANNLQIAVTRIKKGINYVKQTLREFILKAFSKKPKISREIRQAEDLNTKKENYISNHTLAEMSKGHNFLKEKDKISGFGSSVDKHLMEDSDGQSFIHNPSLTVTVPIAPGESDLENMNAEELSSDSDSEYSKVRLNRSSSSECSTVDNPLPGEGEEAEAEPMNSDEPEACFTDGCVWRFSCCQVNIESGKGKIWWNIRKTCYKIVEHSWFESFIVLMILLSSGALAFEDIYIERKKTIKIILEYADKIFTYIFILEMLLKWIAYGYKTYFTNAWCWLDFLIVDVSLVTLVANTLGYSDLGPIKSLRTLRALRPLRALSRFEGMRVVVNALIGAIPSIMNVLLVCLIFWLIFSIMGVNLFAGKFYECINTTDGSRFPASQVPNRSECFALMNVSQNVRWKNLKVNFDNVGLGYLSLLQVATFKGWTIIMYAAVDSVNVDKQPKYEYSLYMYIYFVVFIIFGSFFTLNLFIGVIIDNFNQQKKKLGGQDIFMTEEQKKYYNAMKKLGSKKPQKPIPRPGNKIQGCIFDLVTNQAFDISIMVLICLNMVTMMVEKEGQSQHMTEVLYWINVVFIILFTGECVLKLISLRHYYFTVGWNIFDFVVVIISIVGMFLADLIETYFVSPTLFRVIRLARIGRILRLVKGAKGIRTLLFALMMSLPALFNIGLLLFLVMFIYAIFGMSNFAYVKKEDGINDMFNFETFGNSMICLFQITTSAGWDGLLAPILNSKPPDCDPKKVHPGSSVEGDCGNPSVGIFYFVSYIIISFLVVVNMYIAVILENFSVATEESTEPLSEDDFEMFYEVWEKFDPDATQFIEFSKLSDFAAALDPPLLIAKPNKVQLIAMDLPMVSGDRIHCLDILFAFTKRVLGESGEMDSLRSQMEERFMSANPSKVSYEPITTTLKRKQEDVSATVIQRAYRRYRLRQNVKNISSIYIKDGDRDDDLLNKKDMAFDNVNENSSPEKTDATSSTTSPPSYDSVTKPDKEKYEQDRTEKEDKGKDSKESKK
T1 sequence (Q9NY46 whole entry): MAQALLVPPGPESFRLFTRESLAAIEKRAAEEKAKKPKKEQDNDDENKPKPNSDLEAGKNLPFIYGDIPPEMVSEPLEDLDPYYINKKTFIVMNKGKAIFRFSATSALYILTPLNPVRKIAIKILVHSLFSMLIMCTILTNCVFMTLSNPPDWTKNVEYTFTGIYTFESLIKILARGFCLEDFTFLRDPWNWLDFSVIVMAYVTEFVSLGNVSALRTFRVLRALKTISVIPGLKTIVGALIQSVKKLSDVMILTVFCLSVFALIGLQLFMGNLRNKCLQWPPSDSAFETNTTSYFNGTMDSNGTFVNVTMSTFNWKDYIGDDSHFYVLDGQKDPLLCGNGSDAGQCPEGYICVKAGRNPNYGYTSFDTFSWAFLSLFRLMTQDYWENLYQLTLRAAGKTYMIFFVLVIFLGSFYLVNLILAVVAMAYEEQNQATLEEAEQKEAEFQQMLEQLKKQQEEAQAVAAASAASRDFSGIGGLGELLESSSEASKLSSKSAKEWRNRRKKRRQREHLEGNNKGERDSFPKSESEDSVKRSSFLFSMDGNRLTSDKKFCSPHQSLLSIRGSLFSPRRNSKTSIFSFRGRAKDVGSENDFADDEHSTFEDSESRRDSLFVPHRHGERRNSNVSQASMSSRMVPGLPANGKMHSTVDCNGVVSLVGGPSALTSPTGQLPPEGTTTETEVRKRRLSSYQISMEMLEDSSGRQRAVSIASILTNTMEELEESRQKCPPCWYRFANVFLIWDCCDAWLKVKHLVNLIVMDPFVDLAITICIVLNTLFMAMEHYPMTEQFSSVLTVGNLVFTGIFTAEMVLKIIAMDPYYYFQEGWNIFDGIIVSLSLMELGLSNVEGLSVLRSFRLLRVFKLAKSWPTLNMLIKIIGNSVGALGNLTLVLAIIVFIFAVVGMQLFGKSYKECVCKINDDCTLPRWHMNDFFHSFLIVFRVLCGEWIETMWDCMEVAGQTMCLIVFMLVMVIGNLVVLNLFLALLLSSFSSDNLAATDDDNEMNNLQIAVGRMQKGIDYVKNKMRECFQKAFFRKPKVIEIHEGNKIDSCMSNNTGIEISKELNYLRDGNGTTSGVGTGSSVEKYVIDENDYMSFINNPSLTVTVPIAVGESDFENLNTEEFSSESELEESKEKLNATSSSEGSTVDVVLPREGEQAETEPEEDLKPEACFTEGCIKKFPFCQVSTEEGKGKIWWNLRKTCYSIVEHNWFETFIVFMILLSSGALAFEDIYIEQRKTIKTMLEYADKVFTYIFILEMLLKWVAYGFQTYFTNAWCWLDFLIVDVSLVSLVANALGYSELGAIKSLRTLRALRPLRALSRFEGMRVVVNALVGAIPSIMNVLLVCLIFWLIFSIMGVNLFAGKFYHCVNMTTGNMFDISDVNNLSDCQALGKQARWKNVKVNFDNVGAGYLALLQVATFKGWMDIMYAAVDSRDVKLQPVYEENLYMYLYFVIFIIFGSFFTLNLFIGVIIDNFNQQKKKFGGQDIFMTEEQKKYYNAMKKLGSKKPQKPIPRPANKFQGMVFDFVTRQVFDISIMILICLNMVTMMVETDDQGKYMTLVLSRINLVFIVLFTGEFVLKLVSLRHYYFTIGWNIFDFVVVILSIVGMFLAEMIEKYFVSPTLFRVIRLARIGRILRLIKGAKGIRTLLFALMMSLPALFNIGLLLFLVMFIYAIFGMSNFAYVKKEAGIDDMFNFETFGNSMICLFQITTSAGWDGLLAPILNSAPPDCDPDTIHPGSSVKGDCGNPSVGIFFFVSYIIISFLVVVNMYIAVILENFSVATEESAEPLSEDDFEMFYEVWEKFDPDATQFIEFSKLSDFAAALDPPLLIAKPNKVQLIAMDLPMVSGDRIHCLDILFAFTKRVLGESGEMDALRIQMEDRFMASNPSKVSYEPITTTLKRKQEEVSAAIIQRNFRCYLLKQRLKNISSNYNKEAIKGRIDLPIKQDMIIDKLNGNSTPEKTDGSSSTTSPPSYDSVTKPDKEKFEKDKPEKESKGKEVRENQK

Row | SMILES | IC50 (hSCN3A; [2]) [µM] | IC50 (hSCN9A; [3]) [µM] | other results
1 | O=S(=O)(Nc1nccs1)c1ccc(Nc2nc(Cc3ccc(Cl)cc3)cs2)cc1F [Compound 1, 4-[4-(4-Chloro-benzyl)-thiazol-2-ylamino]-2-fluoro-N-thiazol-2-yl-benzenesulfonamide] | – | – | IC50 (hSCN3A; [1]): < 2 µM; IC50 (hSCN9A; [1]): < 2 µM
2 | Cc1csc(NS(=O)(=O)c2ccc(Nc3nc(Cc4ccc(Cl)cc4)cs3)cc2F)n1 [Compound 109, 4-(4-(4-chlorobenzyl)thiazol-2-ylamino)-2-fluoro-N-(4-methylthiazol-2-yl)benzenesulfonamide] | < 2 | 2 to 10 | –
3 | N#Cc1cc(Nc2ccn(Cc3ccc(Cl)cc3)n2)ccc1S(=O)(=O)Nc1nccs1 [Compound 264, 4-(1-(4-chlorobenzyl)-1H-pyrazol-3-ylamino)-2-cyano-N-(thiazol-2-yl)benzenesulfonamide] | < 2 | < 2 | –
4 | CC(C)(C)c1csc(Nc2ccc(S(=O)(=O)Nc3nccs3)c(F)c2)n1 [Compound 7, 4-(4-Tert-butyl-thiazol-2-ylamino)-2-fluoro-N-thiazol-2-yl-benzenesulfonamide] | – | – | IC50 (hSCN3A; [1]): < 2 µM; IC50 (hSCN9A; [1]): 2 to 10 µM
5 | O=S(=O)(Nc1nccs1)c1ccc(Nc2ccn(Cc3ccc(C(F)(F)F)cc3)n2)cc1F [Compound 183, 2-fluoro-N-(thiazol-2-yl)-4-(1-(4-(trifluoromethyl)benzyl)-1H-pyrazol-3-ylamino)benzenesulfonamide] | < 2 | < 2 | –
6 | O=S(=O)(Nc1nccs1)c1ccc(Nc2nc(C(F)(F)F)cs2)cc1 [Compound 83, N-(thiazol-2-yl)-4-(4-(trifluoromethyl)thiazol-2-ylamino)benzenesulfonamide] | < 2 | 2 to 10 | –
7 | CC(C)(C)n1nc(Cc2ccc(Cl)cc2)cc1Nc1ccc(S(=O)(=O)Nc2nccs2)cc1 [Compound 15, 4-(1-tert-butyl-3-(4-chlorobenzyl)-1H-pyrazol-5-ylamino)-N-(thiazol-2-yl)benzenesulfonamide] | – | – | IC50 (hSCN3A; [1]): < 2 µM; IC50 (hSCN9A; [1]): < 2 µM
8 | O=S(=O)(Nc1nccs1)c1ccc(Nc2ccn(Cc3ccc(Cl)cc3)n2)nc1 [Compound 227, 6-(1-(4-chlorobenzyl)-1H-pyrazol-3-ylamino)-N-(thiazol-2-yl)pyridine-3-sulfonamide] | < 2 | 2 to 10 | –
9 | O=S(=O)(Nc1nccs1)c1ccc(Nc2nc(CCCOc3ccc(Cl)cc3)cs2)cc1 [Compound 94, 4-(4-(3-(4-chlorophenoxy)propyl)thiazol-2-ylamino)-N-(thiazol-2-yl)benzenesulfonamide] | < 2 | < 2 | –
10 | O=S(=O)(Nc1nccs1)c1ccc(Nc2nc(Cc3ccc(Cl)cc3)cs2)nc1 [Compound 107, 6-(4-(4-chlorobenzyl)thiazol-2-ylamino)-N-(thiazol-2-yl)pyridine-3-sulfonamide] | < 2 | 2 to 10 | –
11 | O=S(=O)(Nc1nccs1)c1ccc(Nc2ccn(Cc3ccc(Cl)cc3F)n2)c(F)c1 [Compound 198, 4-(1-(4-chloro-2-fluorobenzyl)-1H-pyrazol-3-ylamino)-3-fluoro-N-(thiazol-2-yl)benzenesulfonamide] | < 2 | < 2 | –
12 | O=S(=O)(Nc1nccs1)c1ccc(Nc2nnc(-c3ccc(Cl)cc3)c3ccccc23)cc1 [Compound 40, 4-(4-(4-chlorophenyl)phthalazin-1-ylamino)-N-(thiazol-2-yl)benzenesulfonamide, reference compound] | – | – | IC50 (hSCN3A; [4]): 1.32 µM; IC50 (hSCN9A; [4]): 3.49 µM
13 | O=S(=O)(Nc1nccs1)c1ccc(Nc2nc(C3CC3c3ccccc3)cs2)cc1 (stereo not drawn) [Compound 53, 4-(4-(2-phenylcyclopropyl)thiazol-2-ylamino)-N-(thiazol-2-yl)benzenesulfonamide] | < 2 | > 1 | –
14 | O=S(=O)(Nc1nccs1)c1ccc(Nc2nccc(OCC(c3ccccc3)c3ccccc3)n2)cc1 [Compound 46, 4-(4-(2,2-diphenylethoxy)pyrimidin-2-ylamino)-N-(thiazol-2-yl)benzenesulfonamide] | < 2 | > 10 | –
15 | O=S(=O)(Nc1nccs1)c1ccc(Nc2cc(-c3ccccc3)nn2-c2ccccc2)cc1F [Compound 154, 4-(1,3-diphenyl-1H-pyrazol-5-ylamino)-2-fluoro-N-(thiazol-2-yl)benzenesulfonamide] | < 2 | < 2 | –
16 | O=S(=O)(Nc1nccs1)c1ccc(Nc2nccc(OCc3ccccc3)n2)cc1 [Compound 45, 4-(4-(benzyloxy)pyrimidin-2-ylamino)-N-(thiazol-2-yl)benzenesulfonamide] | < 2 | > 10 | –
17 | Cc1cc(Nc2ccc(S(=O)(=O)Nc3nccs3)c(F)c2)n(-c2ccccc2Cl)n1 [Compound 149, 4-(1-(2-chlorophenyl)-3-methyl-1H-pyrazol-5-ylamino)-2-fluoro-N-(thiazol-2-yl)benzenesulfonamide] | < 2 | < 2 | –

Row | SMILES | IC50 (hSCN3A; [2]) [µM] | IC50 (hSCN9A; [3]) [µM] | other results
18 | O=S(=O)(Nc1nccs1)c1ccc(Nc2nc(-c3ccccc3)c(-c3ccccc3)s2)cc1 [Compound 47, 4-(4,5-diphenylthiazol-2-ylamino)-N-(thiazol-2-yl)benzenesulfonamide] | < 2 | > 3 | –
19 | Cc1cc(S(=O)(=O)Nc2nccs2)c(F)cc1Nc1ccn(Cc2ccc(Cl)cc2)n1 [Compound 269, 4-(1-(4-chlorobenzyl)-1H-pyrazol-3-ylamino)-2-fluoro-5-methyl-N-(thiazol-2-yl)benzenesulfonamide] | < 2 | < 2 | –
20 | O=S(=O)(Nc1nccs1)c1ccc(Nc2nc(-c3ccc(C(F)(F)F)cc3F)cs2)cc1 [Compound 90, 4-(4-(2-fluoro-4-(trifluoromethyl)phenyl)thiazol-2-ylamino)-N-(thiazol-2-yl)benzenesulfonamide] | < 2 | > 1 | –
21 | O=S(=O)(Nc1nccs1)c1ccc(Nc2cc(C3CC3)nn2-c2ccccc2)cc1F [Compound 32, 4-(3-cyclopropyl-1-phenyl-1H-pyrazol-5-ylamino)-2-fluoro-N-(thiazol-2-yl)benzenesulfonamide] | – | – | IC50 (hSCN3A; [1]): < 2 µM; IC50 (hSCN9A; [1]): < 2 µM
22 | O=S(=O)(Nc1nccs1)c1ccc(Nc2nc(Cc3ccc(Cl)cc3)cs2)cc1 [Compound 91, 4-(4-(4-chlorobenzyl)thiazol-2-ylamino)-N-(thiazol-2-yl)benzenesulfonamide] | < 2 | < 2 | –
23 | Cn1c(Nc2ccc(S(=O)(=O)Nc3nccs3)cc2)nc2cc(Cl)ccc21 [Compound 100, 4-(5-chloro-1-methyl-1H-benzo[d]imidazol-2-ylamino)-N-(thiazol-2-yl)benzenesulfonamide] | < 2 | 2 to 10 | –
24 | Cn1nc(CC(C)(C)C)cc1Nc1ccc(S(=O)(=O)Nc2nccs2)c(F)c1 [Compound 34, 2-fluoro-4-(1-methyl-3-neopentyl-1H-pyrazol-5-ylamino)-N-(thiazol-2-yl)benzenesulfonamide] | – | – | IC50 (hSCN3A; [1]): < 2 µM; IC50 (hSCN9A; [1]): < 2 µM
25 | Cn1nc(C(C)(C)C)cc1Nc1ccc(S(=O)(=O)Nc2nccs2)c(F)c1 [Compound 193, 4-(3-tert-butyl-1-methyl-1H-pyrazol-5-ylamino)-2-fluoro-N-(thiazol-2-yl)benzenesulfonamide] | < 2 | < 2 | –
26 | O=S(=O)(Nc1nccs1)c1ccc(Nc2nc(CNCCCCc3ccccc3)cs2)cc1 [Compound 69, 4-(4-((4-phenylbutylamino)methyl)thiazol-2-ylamino)-N-(thiazol-2-yl)benzenesulfonamide] | < 2 | < 2 | –
27 | COc1ccc(C(=O)Cn2cc3cc(S(=O)(=O)Nc4nccs4)ccc3n2)c(OC)c1 [Compound 277, 2-(2-(2,4-dimethoxyphenyl)-2-oxoethyl)-N-(thiazol-2-yl)-2H-indazole-5-sulfonamide] | > 1 | < 2 | –
28 | O=S(=O)(Nc1nccs1)c1ccc(Nc2ccn(Cc3ccc(C(F)(F)F)cc3)n2)c(F)c1 [Compound 185, 3-fluoro-N-(thiazol-2-yl)-4-(1-(4-(trifluoromethyl)benzyl)-1H-pyrazol-3-ylamino)benzenesulfonamide] | < 2 | < 2 | –
29 | O=S(=O)(Nc1nccs1)c1ccc(Nc2ccn(Cc3ccc(Cl)cc3)n2)cc1F [Compound 31, 4-(1-(4-chlorobenzyl)-1H-pyrazol-3-ylamino)-2-fluoro-N-(thiazol-2-yl)benzenesulfonamide] | – | – | IC50 (hSCN3A; [1]): < 2 µM; IC50 (hSCN9A; [1]): < 2 µM
30 | CC(C)(C)n1nc(Cc2ccc(Cl)cc2)cc1Nc1ccc(S(=O)(=O)Nc2nccs2)c(F)c1 [Compound 26, 4-(1-tert-butyl-3-(4-chlorobenzyl)-1H-pyrazol-5-ylamino)-2-fluoro-N-(thiazol-2-yl)benzenesulfonamide] | – | – | IC50 (hSCN3A; [1]): < 2 µM; IC50 (hSCN9A; [1]): < 2 µM
31 | O=S(=O)(Nc1nccs1)c1ccc(Nc2ccccc2-c2ccccc2)cc1F [Compound 172, 4-(biphenyl-2-ylamino)-2-fluoro-N-(thiazol-2-yl)benzenesulfonamide] | < 2 | < 2 | –
32 | CCN(CC)Cc1csc(Nc2ccc(S(=O)(=O)Nc3nccs3)cc2)n1 [Compound 68, 4-(4-((diethylamino)methyl)thiazol-2-ylamino)-N-(thiazol-2-yl)benzenesulfonamide] | > 1 | 2 to 10 | –
33 | Cn1nc(CC2CCCCC2)cc1Nc1ccc(S(=O)(=O)Nc2nccs2)cc1 [Compound 29, 4-(3-(cyclohexylmethyl)-1-methyl-1H-pyrazol-5-ylamino)-N-(thiazol-2-yl)benzenesulfonamide] | – | – | IC50 (hSCN3A; [1]): < 2 µM; IC50 (hSCN9A; [1]): < 2 µM

Source: patent publication US8124610B2, “Sodium channel inhibitors” (Icagen Inc., priority 2007, dated 2012)
